Test results from ChEMBL document CHEMBL1159172, “Modelisation, Synthesis and Anti-HIV activities of N,N,N,N,N-pentakistetraazamacrocycles salts derivatives” (Bioorg Med Chem Lett, 1997).

Columns and labels:
[1] = test system: MT4; assay: The compound was tested for its cytotoxic activity against HIV-1 replication in MT-4 cells, (50% cytotoxic concentration).; assay type: functional, Homo sapiens; design: unit not given here
[2] = test system: MT4; assay: The compound was tested for its inhibitory activity against HIV-1 replication in MT-4 cells(50% antiviral effective concentration); IA: inactive.; assay type: functional, cell-based, Homo sapiens
[3] = Selectivity index of EC50 and CC50; assay type: functional

SMILES | CC50 [1] | EC50 [2] | SI [3]
c1ccc(CNCCCCCN2CCCN(CCCCCNCc3ccccc3)CCCN(CCCCCNCc3ccccc3)CCN(CCCCCNCc3ccccc3)CCC2)cc1 | 1 |  | 
[Cl-].c1ccc(CNCCCCCN2CCCN(CCCCCNCc3ccccc3)CCN(CCCCCNCc3ccccc3)CCC[N+](CCCCCNCc3ccccc3)(CCCCCNCc3ccccc3)CCC2)cc1 | 10 | Not Active | 
CC(C)(C)OC(=O)N(CCCCCN1CCCN(CCCCCN(Cc2ccccc2)C(=O)OC(C)(C)C)CCN(CCCCCN(Cc2ccccc2)C(=O)OC(C)(C)C)CCCN(CCCCCN(Cc2ccccc2)C(=O)OC(C)(C)C)CC1)Cc1ccccc1 | >10 |  | > 10
CC(C)(C)OC(=O)N(CCCCCN1CCCN(CCCCCN(Cc2ccccc2)C(=O)OC(C)(C)C)CCN(CCCCCN(Cc2ccccc2)C(=O)OC(C)(C)C)CCC[N+](CCCCCN(Cc2ccccc2)C(=O)OC(C)(C)C)(CCCCCN(Cc2ccccc2)C(=O)OC(C)(C)C)CCC1)Cc1ccccc1.Cc1ccc(S(=O)(=O)[O-])cc1 | 10 | Not Active | 
C1CNCCNCCCN(CCCN2CCCNCCNCCCNCC2)CCNC1 | >100 |  | > 100
CC(C)(C)OC(=O)N(CCCCCN1CCCN(CCCCCN(Cc2ccccc2)C(=O)OC(C)(C)C)CCCN(CCCCCN(Cc2ccccc2)C(=O)OC(C)(C)C)CCN(CCCCCN(Cc2ccccc2)C(=O)OC(C)(C)C)CCC1)Cc1ccccc1 | >50 |  | > 5
c1ccc(CNCCCCCN2CCCN(CCCCCNCc3ccccc3)CCN(CCCCCNCc3ccccc3)CCCN(CCCCCNCc3ccccc3)CC2)cc1 | 10 |  | 10
[Cl-].c1ccc(CNCCCCCN2CCCN(CCCCCNCc3ccccc3)CC[N+](CCCCCNCc3ccccc3)(CCCCCNCc3ccccc3)CCCN(CCCCCNCc3ccccc3)CC2)cc1 | 5 |  | 50
CC(C)(C)OC(=O)N(CCCCCN1CCCN(CCCCCN(Cc2ccccc2)C(=O)OC(C)(C)C)CC[N+](CCCCCN(Cc2ccccc2)C(=O)OC(C)(C)C)(CCCCCN(Cc2ccccc2)C(=O)OC(C)(C)C)CCCN(CCCCCN(Cc2ccccc2)C(=O)OC(C)(C)C)CC1)Cc1ccccc1.Cc1ccc(S(=O)(=O)[O-])cc1 | 50 |  | 10
